Measurements published in US9586896B2, “Nitroxyl donors with improved therapeutic index” (Cardioxyl Pharmaceuticals, Inc., priority 2013, dated 2017).

Legend:
[1] = In vitro stability (half-life) in human plasma; type: in vitro ADME; settings: male, pH 7.4, human plasma pH 7.4, anticoagulant, 37° C., read-out: T1/2 (minutes) Human
Experimental: (§1) Compound (1), compound (2), and CXL-1020 were tested for their stability in plasma. The assay system comprised (i) PBS, or plasma from rat, dog or human (at least 3 donors, male, pooled) at pH 7.4, and (ii) for tests conducted in plasma, an anticoagulant (sodium heparin or sodium citrate). Each test compound (5 μM) was incubated in PBS or plasma at 37° C. on a THERMOMIXER® with shaking Three samples (n=3) were taken at each of seven sampling time points: 0, 10, 30, 60, 90, 180 and 360 minutes. The samples were immediately combined with 3 volumes (i.e., 3 times the volume of PBS or plasma) of acetonitrile containing 1% formic acid and an internal standard to terminate the reaction. AB SCIEX API 3000 LC-MS/MS analysis of the test compounds was performed without a standard curve. Half-lives (T1/2) of the test compounds were determined from graphs of the percent remaining values using the peak area response ratio.

[2] = tested on: beagle dogs; assay: 24-hour continuous infusion, canine peripheral (cephalic) vein model, clinical pathology; type: in vivo; settings: for NOAEL (μg/kg/min), clinical pathology markers: 24 hour i.v. infusion, CAPTISOL 7% w/v pH 4, WBC, fibrinogen, CRP, molar equivalent dose rates to CXL-1020
Experimental: After 24 hours of infusion, clinical pathology changes similar to those observed in previous studies using an implanted central catheter were detected.
Studies were conducted in male and female beagle dogs. Animals were allowed free access to drinking water and a commercial canine diet under standard laboratory conditions. Animals were fasted prior to blood sample collections when indicated by the study protocol. Fluorescent lighting was provided via an automatic timer for approximately 12 hours per day. On occasion, the dark cycle was interrupted intermittently due to study-related activities. Temperature and humidity were monitored and recorded daily and maintained to the maximum extent possible between 64° F. to 84° F. and 30% to 70%, respectively. The dogs were acclimated for a period of at least 1 week. During this period, the animals were weighed weekly and observed with respect to general health and any signs of disease. The animals were acclimated to wearing a jacket for at least three days prior to dose administration. Additionally, the animals were also acclimated to wearing an Elizabethan collar (e-collar) during the jacket acclimation.
Animals were catheterized the day prior to dose administration. A percutaneous catheter was placed (using aseptic technique and sterile bandaging) in the cephalic vein distal to the elbow. The animals were free-moving in their cages during continuous infusion dose administration. To facilitate continuous infusion dose administration, the peripheral catheter was attached to an extension set routed underneath a canine jacket and then attached to a tether infusion system. To prevent the animals from accessing/removing the peripherally placed percutaneous catheter, the catheterization site was bandaged using Vet Wrap and an e-collar was placed on the animals for the duration of the treatment (i.e., the catheterized period). During the pretreatment period, the venous catheter was infused continuously at a rate of approximately 2-4 mL/hr with 0.9% sodium chloride for injection, USP (saline) to maintain catheter patency. Prior to dosing, the infusion system was pre-filled (slow bolus infusion) with the respective dosing solution to ensure that dosing began as soon as the infusion pump was started. The infusion line was connected to a reservoir containing the control or test compound and the infusion was started. Test compositions were infused continuously, at a predetermined constant infusion rate (1 or 2 mL/kg/hr), for 24 hours and were compared at molar equivalent dose rates.
A detailed clinical examination of each animal was performed twice daily and body temperature measurements and blood samples for clinical pathology were collected from all animals pre-dose and 6 hours, 12 hours, 24 hours and 72 hours post start of composition infusion. At the termination of the study, all animals were euthanized at their scheduled necropsy and complete necropsy examinations were performed. Selected tissues were collected, fixed and stored for potential future microscopic examination. The cephalic vein containing the infusion catheter was dissected intact along with the brachial vein and examined along its entire length. The location of the catheter tip was marked on the unfixed specimen. […]

[3] = In vitro stability (half-life) in rat plasma; type: in vitro ADME; settings: male, rat plasma pH 7.4, anticoagulant, 37° C., read-out: T1/2 (minutes) Rat
Experimental: as §1

[4] = dogs, percutaneous catheter in cephalic vein

SMILES | half-life at 5 μM [1] [min] | NOAEL (μg/kg/min), clinical pathology markers ([2]; dogs) [μg/kg/min] | finding after 6 hours of infusion [2, 4] | microscopic pathology after 24 hours of infusion [2, 4] | half-life at 5 μM [3] [min] | improvement in NOAEL relative to CXL-1020 ([2]; clinical pathology markers) [fold]
CS(=O)(=O)c1ccccc1S(=O)(=O)NO [CXL-1020, N-hydroxy-2-methanesulfonylbenzene-1-sulfonamide] | 2 | <0.03 | significant edema was observed in the upper forelimb | severe thrombophlebitis at the catheter tip |  | 
Cc1ccc(S(=O)(=O)NO)o1 [Compound (1), N-Hydroxy-5-methylfuran-2-sulfonamide] | ~65 |  |  |  | 40 | > 660
CS(=O)(=O)c1cccc(S(=O)(=O)NO)c1 [(2), N-Hydroxy-3-methanesulfonylbenzene-1-sulfonamide] | ~37 | 3 |  |  | 20 | 
